Patent US6914045B2, “Glycopeptide antibiotics” (Wyeth Holdings Corporation, priority 2001, dated 2005)

Assays:
Experiment in all cases: in vitro antibacterial evaluation, MIC by broth dilution
Assay type in all cases: cell-based
Enterococcus sp. = conditions: broth dilution, 18 hours at 35° C.
Outline: (§1)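 Read-out: the lowest concentration at which the test strain fails to grow. Serial dilutions (64-0.06 μg/mL) in Muller-Hinton II […], 5×10^5 CFU/mL inoculum, NCCLS M7-A2 procedure.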

Streptococcus sp. = conditions: broth dilution, 18 hours at 35° C.
Outline: as §1

Staphylococcus sp. = conditions: broth dilution, 18 hours at 35° C.
Outline: as §1

Escherichia coli = conditions: 18 hours at 35° C.

CC(c1ccccc1)C1NC(=O)CNC(=O)C(CO)NC(=O)C(C(O)C2CNC(=N)N2C2OC(CO)C(O)C(O)C2O)NC(=O)C(C(O)C2CNC(=N)N2)NC(=O)C(Cc2ccc(OC3OC(CO)C(OC4OC5COC(C)(c6ccc(F)cc6)OC5C(O)C4O)C(O)C3O)cc2)NC1=O (stereo not shown) [Example 216]
0.5 µg/mL: MIC Streptococcus agalactiae (GC 4564) (Streptococcus sp.) | MIC Streptococcus pyogenes (GC 4563) (Streptococcus sp.) | MIC Streptococcus pyogenes (GC 4563) (Streptococcus sp.; inoculum 5×10^5 CFU/mL, strain GC 4563) | MIC Streptococcus agalactiae (GC 4564) (Streptococcus sp.; inoculum 5×10^5 CFU/mL, strain GC 4564)
0.25 µg/mL: MIC Streptococcus pneumoniae (ATCC 6301) (Streptococcus sp.) | MIC Streptococcus pneumoniae (GC 4565) (Streptococcus sp.) | MIC Streptococcus pneumoniae (ATCC 6301) (Streptococcus sp.; inoculum 5×10^5 CFU/mL, strain ATCC 6301) | MIC Streptococcus pneumoniae (GC 4565) (Streptococcus sp.; inoculum 5×10^5 CFU/mL, strain GC 4565)
16 µg/mL: MIC Escherichia coli (GC 4559) (Escherichia coli)
1 µg/mL: MIC Staphylococcus aureus (GC 4541) (Staphylococcus sp.; strain GC 4541) | MIC Staphylococcus aureus (GC 4542) (Staphylococcus sp.; strain GC 4542) | MIC Staphylococcus aureus (GC 4545) (Staphylococcus sp.; strain GC 4545) | MIC Staphylococcus haemolyticus (GC 4546) (Staphylococcus sp.; strain GC 4546) | MIC Coagulase Negative Staphylococcus (GC 4548) (Staphylococcus sp.; strain GC 4548) | MIC Coagulase Negative Staphylococcus (GC 4549) (Staphylococcus sp.; strain GC 4549) | MIC Coagulase Negative Staphylococcus (GC 6257) (Staphylococcus sp.; strain GC 6257)
4 µg/mL: MIC Enterococcus avium (GC 4558) (Enterococcus sp.) | MIC Enterococcus faecalis (ATCC 29212) (Enterococcus sp.) | MIC Enterococcus faecalis (GC 2242) (Enterococcus sp.) | MIC Enterococcus faecalis (GC 2691) (Enterococcus sp.) | MIC Enterococcus faecalis (GC 3059) (Enterococcus sp.) | MIC Enterococcus faecalis (GC 4552) (Enterococcus sp.) | MIC Enterococcus faecalis (GC 4553) (Enterococcus sp.) | MIC Enterococcus faecalis (GC 4554) (Enterococcus sp.) | MIC Enterococcus faecalis (GC 6189) (Enterococcus sp.) | MIC Enterococcus faecium (GC 2243) (Enterococcus sp.) | MIC Enterococcus faecium (GC 4556) (Enterococcus sp.) | MIC Enterococcus faecium (GC 4557) (Enterococcus sp.) | MIC Enterococcus faecalis (ATCC 29212) (Enterococcus sp.; inoculum 5×10^5 CFU/mL, strain ATCC 29212) | MIC Enterococcus faecalis (GC 2242) (Enterococcus sp.; inoculum 5×10^5 CFU/mL, strain GC 2242) | MIC Enterococcus faecium (GC 2243) (Enterococcus sp.; inoculum 5×10^5 CFU/mL, strain GC 2243) | MIC Enterococcus faecalis (GC 2691) (Enterococcus sp.; inoculum 5×10^5 CFU/mL, strain GC 2691) | MIC Enterococcus faecalis (GC 3059) (Enterococcus sp.; inoculum 5×10^5 CFU/mL, strain GC 3059) | MIC Enterococcus faecalis (GC 4552) (Enterococcus sp.; inoculum 5×10^5 CFU/mL, strain GC 4552) | MIC Enterococcus faecalis (GC 4553) (Enterococcus sp.; inoculum 5×10^5 CFU/mL, strain GC 4553) | MIC Enterococcus faecalis (GC 4554) (Enterococcus sp.; inoculum 5×10^5 CFU/mL, strain GC 4554) | MIC Enterococcus faecium (GC 4556) (Enterococcus sp.; inoculum 5×10^5 CFU/mL, strain GC 4556) | MIC Enterococcus faecium (GC 4557) (Enterococcus sp.; inoculum 5×10^5 CFU/mL, strain GC 4557) | MIC Enterococcus avium (GC 4558) (Enterococcus sp.; inoculum 5×10^5 CFU/mL, strain GC 4558) | MIC Enterococcus faecalis (GC 6189) (Enterococcus sp.; inoculum 5×10^5 CFU/mL, strain GC 6189)
<0.06 µg/mL: MIC Streptococcus pneumoniae (GC 1894) (Streptococcus sp.) | MIC Streptococcus pneumoniae (GC 1894) (Streptococcus sp.; inoculum 5×10^5 CFU/mL, strain GC 1894)
32 µg/mL: MIC Escherichia coli (ATCC 25922) (Escherichia coli)
2 µg/mL: MIC Staphylococcus aureus (ATCC 29213) (Staphylococcus sp.; strain ATCC 29213) | MIC Staphylococcus aureus (GC 1131) (Staphylococcus sp.; strain GC 1131) | MIC Staphylococcus aureus (GC 3051) (Staphylococcus sp.; strain GC 3051) | MIC Staphylococcus aureus (GC 3053) (Staphylococcus sp.; strain GC 3053) | MIC Staphylococcus aureus-SMITH (GC 4543) (Staphylococcus sp.; strain GC 4543) | MIC Staphylococcus aureus (GC 4544) (Staphylococcus sp.; strain GC 4544) | MIC Coagulase Negative Staphylococcus (GC 4547) (Staphylococcus sp.; strain GC 4547) | MIC Coagulase Negative Staphylococcus (GC 4551) (Staphylococcus sp.; strain GC 4551) | MIC Escherichia coli (GC 4560) (Escherichia coli)
